Source: ChEMBL document CHEMBL1145215, “Design, synthesis, and biological evaluation of achiral analogs of duocarmycin SA” (Bioorg Med Chem Lett, 2005)

Experiments:
K562 = assay: Cytotoxicity was determined against K562 (chronic human myeloid leukemia )cells; type: functional, cell-based
LS174T = assay: Cytotoxicity against LS174T (human colon carcinoma )cells; type: functional, cell-based

SMILES | IC50 (K562) [nM] | IC50 (LS174T) [nM]
COC(=O)c1[nH]c2c(O)cc(NC(=O)c3cc4cc(OC)c(OC)c(OC)c4[nH]3)c(CCCl)c2c1C(=O)OC | 25 | 4
COC(=O)c1[nH]c2c(O)cc(NC(=O)c3cc4cc(NC(=O)c5cc6ccccc6o5)ccc4[nH]3)c(CCCl)c2c1C(=O)OC | 25 | 4
COc1cc2cc(C(=O)Nc3cc(O)ccc3CCCl)[nH]c2c(OC)c1OC | 1470 | 13800
